Here are results for 1 substance from US8298555B2, “Color cosmetic compositions for topical anti-aging skin treatment” (Discovery Partners, LLC, priority 2007, dated 2012).

The data set can be described thus: stability of absorbance spectrum under intense pulsed light (IPL) flashes. Type of data set: physicochemical. Conditions: ten pulses at the maximum power of the flash lamp. From the text: Another aspect of the present invention is that controlled dissociation of the sodium-copper-chlorophyllin complex can occur in part because of the high stability of this complex. Normally, inorganic and organic copper salts, including copper-peptides, are not very stable with regard to binding copper. The inherent stability and lack of reactivity of sodium-copper-chlorophyllin is essential for this process to work successfully. […] Stability was monitored by measurement of the dye's full absorbance spectrum, since degradation of the dye would be detectable as changes in the absorbance spectrum.

For the substance sodium-copper-chlorophyllin, the “absorbance spectrum after IPL exposure (thermal and light stability)” value was “remained unchanged”.
